Source: US20220204490A1, “Substituted 4-[5-(Benzofuran-2-yl)-1,2,4-Oxadiazol-3-yl]Benzoic Acid Compounds for Use in Therapy for Neuropathic Pain” (King's College London, priority 2019, published 2022)

Columns and labels:
[1] = tested on: rats subjected to L5 SNL; experiment: Pain threshold, thermal hyperalgesia, cold plate; type: in vivo; conditions: rat L5 SNL; 3 mg/kg po every other day for 4 weeks; plate at 4 °C; versus placebo; FIG. 3
Text: (§1) Adult male Sprague-Dawley rats (150-200 g) were housed under natural light: dark cycles and provided water and food ad lib. They were habituated to the testing paradigms for 3-5 days before data collection. All protocols were approved by the Animal Care and Use Committee of Kings College London and UK Home Office.
(§2) Animals were studied using the standard model for neuropathic pain (lumbar 5 spinal nerve ligation, L5 SNL; see, e.g., Kim et al., 1992). This is the most widely used model in neuropathic pain studies because of its high reproducibility of spontaneous and evoked pain (hyperalgesia, allodynia) and the absence of autotomy (see, e.g., Barrot, 2012; Huang et al., 2016).
(§3) Adult rats received a partial nerve ligation of the left sciatic nerve (see, e.g., Seltzer et al., 1990) under isoflurane (Abbott Animal Health) inhalation anesthesia. A small incision was made midway up the left thigh to expose the sciatic nerve. […]
(§4) Pain thresholds were measured according to the methods described below, baseline at 1 day prior to surgery, and at 1, 6, 9, 16, 23, and 28 days after surgery.
Withdrawal of the hind paw in response to painful cold stimulation was assessed using an Incremental Hot/Cold Plate (IITC Life Sciences) set at 4±0.1° C. […] The latency to withdraw the paw was measured to the nearest 0.01 seconds. […]

[2] = tested on: rats subjected to L5 SNL; experiment: Pain threshold, thermal hyperalgesia, hot plate (radiant heat paw withdrawal latency); type: in vivo; conditions: rat L5 SNL; 3 mg/kg po every other day for 4 weeks; versus placebo; FIG. 2
Text: as §1, §2
as §3, with “nerve. The nerve was carefully cleared of surrounding connective tissues at a site near the trochanter just distal to the point at which the posterior biceps semitendinosus nerve branches off the common sciatic nerve.” for “nerve.”
as §4
Thermal hyperalgesia was assessed using a modified method of Hargreaves et al., 1988. […]

[3] = tested on: rats subjected to L5 SNL; experiment: Pain threshold, Randall-Selitto test (paw pressure threshold); type: in vivo; conditions: rat L5 SNL; 3 mg/kg po every other day for 4 weeks; versus placebo; FIG. 4
Text: as §1, §2, §3, §4
Mechanical nociceptive thresholds were evaluated using an Analgesy-Meter (Ugo Basile, Comerio, Italy) (see, e.g., Raghavendra et al., 2003). […] The pressure required to elicit paw withdrawal, the paw pressure threshold, in grams, was determined. […]

[4] = tested on: rats subjected to L5 SNL; experiment: Pain threshold, mechanical allodynia (von Frey hairs) after nerve ligation; type: in vivo; conditions: rat L5 SNL; 3 mg/kg po every other day for 4 weeks; versus placebo; FIG. 1
Text: as §1, §2, §3, §4
Static mechanical withdrawal thresholds were assessed by applying von Frey hairs (Touch Test, Stoelting, Ill., USA) to the plantar surface of the hind paw. […] A positive response was recorded when a 40% withdrawal response occurred over 5 applications. […]

[5] = tested on: tumour necrosis factor α (TNFα); experiment: RT-qPCR analysis of TNFα expression in spinal cord after nerve injury; type: in vivo; conditions: rat; 14 days after injury; 3 mg/kg po every other day; versus placebo; FIG. 5
Description: (§5) Two groups of 11 rats were studied. In each group, the rats received partial nerve ligation of the left sciatic nerve (L5 SNL), as described above. In one group, the rats were treated with test compound; in the other group, the rats were treated with placebo. In each group, 8 animals were used for behavioral studies (for 28 days following surgery), as described below. In each group, 3 animals were used for tissue analysis (at 14 days following surgery), as described below.
(§6) Rats were treated with treatment solution or a placebo, orally, starting on the day after surgery and subsequently every other day for 4 weeks.
(§7) For treated animals, treatment solution was administered orally (po), by oral gavage, to give a dose of 3 mg/kg.
(§8) Fourteen days after injury, three rats from each group were sacrificed. […] Total RNA was isolated with the Qiagen RNeasy® Mini kit and reverse transcribed with a QuantiTect® Reverse Transcription kit (Qiagen). Levels of tumour necrosis factor α (TNFα) and tumour necrosis factor receptor 1 (TNFR1) expression were quantitated in triplicate, relative to glyceraldehyde 3-phosphate dehydrogenase (GAPDH) and triplicate non-template controls for each gene, by RT-qPCR analysis on a LightCycler® 480 instrument with LightCycler® SYBR® Green 1 Master reagent (Roche). […]

[6] = tested on: axonal outgrowth; conditions: models of nerve injury; earlier work of the Applicant (Borthwick et al., 2016); cited from earlier work
[7] = tested on: rats subjected to L5 SNL; experiment: Standard model for neuropathic pain (L5 SNL), behavioural studies overall; type: in vivo; conditions: rat L5 SNL; treated for 4 weeks, 3 mg/kg po every other day; versus placebo
Text: as §1, §2
as §3, with “nerve. The nerve was carefully cleared of surrounding connective tissues at a site near the trochanter just distal to the point at which the posterior biceps semitendinosus nerve branches off the common sciatic nerve.” for “nerve.”
as §4

[8] = tested on: tumour necrosis factor receptor 1 (TNFR1); experiment: RT-qPCR analysis of TNFR1 expression in spinal cord after nerve injury; type: in vivo; conditions: rat; 14 days after injury; 3 mg/kg po every other day; versus placebo; FIG. 6
Description: as §5, §6, §7, §8

[9] = tested on: brain-derived neurotrophic factor (BDNF); experiment: Immunocytochemistry of BDNF in spinal cord after nerve injury; type: in vivo; conditions: rat; 14 days after injury; 3 mg/kg po every other day; versus placebo; FIG. 7
Description: as §5, §6
For treated animals, treatment solution was administered orally (po), by oral gavage, to give a dose of 3 mg/kg. […]
Multichannel fluorescence (DAPI-FITC-Texas Red filter set) images were captured using a Zeiss LSM 700 laser-scanning confocal microscope. […] Axiovision software was used to collect information on pixel immunoreactivity used for quantitative purposes. […]
FIG. 7 is a bar graph showing the BDNF level (arbitray units) in the dorsal horn ipsilateral to peripheral nerve injury for (a) rats treated with placebo and (b) rats treated with BOBA-001. Five serial sections per injured cord analysed, from 3 animals per group (n=3). […]

Cc1ccc(C)c2oc(-c3nc(-c4ccc(C(=O)O)cc4)no3)cc12 [BOBA-001, 4-(5-(4,7-Dimethylbenzofuran-2-yl)-1,2,4-oxadiazol-3-yl)benzoic acid]
cold plate paw withdrawal (thermal threshold) [1]: significant improvement | hot plate paw withdrawal (thermal threshold) [2]: significant improvement | Randall Sellito paw withdrawal threshold (mechanical threshold) [3]: significant improvement | mechanical paw withdrawal threshold (von Frey) [4]: significant improvement | TNFα: GAPDH expression ratio in the dorsal horn ipsilateral to peripheral nerve injury [5]: significantly down-regulated | axonal outgrowth [6]: causes axonal outgrowth | amelioration of pain [7]: significant amelioration of pain | TNFR1: GAPDH expression ratio in the dorsal horn ipsilateral to peripheral nerve injury [8]: significantly down-regulated | BDNF level in the dorsal horn ipsilateral to peripheral nerve injury [9]: significantly down-regulated
